# Molecular target: T1, FLuc-C-HiBiT (Photinus pyralis, UniProt P08659)
# T1 construct: firefly luciferase with C-terminal HiBiT tag, E. coli expressed
# Experiment: biochemical
# Settings: enzyme activity, 10 uM ATP; read-out: IC50 or SDR50 (mM) / FLuc E
# T1 sequence (P08659 whole entry, looked up): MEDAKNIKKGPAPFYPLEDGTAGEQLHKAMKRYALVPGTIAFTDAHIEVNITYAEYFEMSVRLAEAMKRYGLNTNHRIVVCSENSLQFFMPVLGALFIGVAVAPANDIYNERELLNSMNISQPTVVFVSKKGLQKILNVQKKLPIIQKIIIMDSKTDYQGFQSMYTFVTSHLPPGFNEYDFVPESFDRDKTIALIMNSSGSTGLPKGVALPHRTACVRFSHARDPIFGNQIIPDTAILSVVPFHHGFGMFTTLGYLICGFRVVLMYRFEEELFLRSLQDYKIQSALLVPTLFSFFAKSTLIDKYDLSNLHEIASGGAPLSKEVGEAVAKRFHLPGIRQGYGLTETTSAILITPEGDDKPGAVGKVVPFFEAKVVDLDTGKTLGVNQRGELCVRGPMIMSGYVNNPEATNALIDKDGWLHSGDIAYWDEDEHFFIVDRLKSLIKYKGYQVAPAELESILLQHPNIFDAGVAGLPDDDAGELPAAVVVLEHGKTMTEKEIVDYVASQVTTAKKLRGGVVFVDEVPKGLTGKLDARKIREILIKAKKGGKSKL
row,IC50,Structure (SMILES)
1,> 30 µM,NC(=O)COC(=O)c1ccccc1-c1nc2ccccc2s1 [NCGC00641952-01]
2,> 30 µM,N[S+](=O)([O-])c1cccc(N/C=C2\C(=O)Nc3ccccc32)c1 [NCGC00242167-02]
3,18 µM,Cc1ccc(-c2cccc(COc3cnc4c(ccn4CC(=O)O)c3)c2)cc1C [NCGC00418247-01]
4,7.85 µM,Cc1ccc(C2Cn3nnc(C(=O)N4CCC(C(=O)NC5CC5)CC4)c3CO2)cc1 (centres unmarked) [NCGC00449485-01]
5,4.95 µM,Cc1ccc(-n2ncc3c(N4CCC(C)CC4)ncnc32)cc1C [NCGC00139121-01]
6,0.0351 µM,CCc1ccc2nc(N3CCC(C(=O)O)CC3)sc2c1 [NCGC00112332-01]
7,16.1 µM,CC(C)(C)c1ccc(C(=O)Nc2ccc([C@H]3OCC(=O)N[C@@H]3CO)cc2)cc1 [NCGC00396656-01]
8,1.11 µM,CC1CCCCN1c1ncnc2c1cnn2-c1ccccc1 (centres unmarked) [NCGC00605414-01]
9,12.4 µM,Oc1c(Br)cc(Br)cc1-c1nc2ccccc2s1 [NCGC00098096-01]
10,> 30 µM,O=C(NCc1ccc(F)cc1)N1CC(Oc2ccc(-c3nc(-c4ccccc4)no3)cc2)C1 [NCGC00441109-01]
11,8.81 µM,O=C(NC1CCCN(c2cc(-c3ccc(F)cc3)n[nH]2)C1)c1ccc2ncccc2c1 (centres unmarked) [NCGC00437580-01]
12,11.1 µM,COc1cccc(-c2cc(C(=O)NCc3nc(-c4ccccc4)n[nH]3)[nH]n2)c1 [NCGC00437481-01]
13,16.1 µM,C[C@@H]1C(=O)O[C@H]2[C@H]1CC[C@@]1(C)Cc3sc(NCCc4ccccn4)nc3[C@@H](C)[C@H]21 [NCGC00391315-01]
14,1.24 µM,Brc1ccc(-c2nc(-c3ccccn3)no2)o1 [NCGC00079657-01]
15,18 µM,COc1ccc(-c2cnc3[nH]cc(CC(=O)N4CCN(c5ccccn5)CC4)c3c2)cc1 [NCGC00412443-01]
16,9.89 µM,O=C(Nc1c(C(=O)O)oc2ccccc12)c1ccc(C(F)(F)F)cc1 [NCGC00141808-01]
17,9.89 µM,Cc1ccc2oc(C(=O)Nc3cccc(-c4nc5ccccc5s4)c3)c(C)c2c1 [NCGC00119185-01]
18,0.442 µM,Cc1cccc(NC(=O)c2cc(-c3ccc4c(c3)OCCO4)on2)c1 [NCGC00118828-01]
19,12.4 µM,Cc1c(-c2ccccc2)[nH]c2c(CNC(=O)C3=NN(C)C(=O)CC3)cc(Cl)cc12 [NCGC00439904-01]
20,11.1 µM,COc1ccccc1-c1nc2cc(NC(=O)c3ccccc3Cl)ccc2o1 [NCGC00098320-01]
21,7 µM,O=C(COc1ccc(Cl)cc1)Nc1ccc(-c2nc3cc(Cl)ccc3o2)c(O)c1 [NCGC00099397-01]

row,IC50,Structure (SMILES)
1,0.0881 µM,Cc1ccc(C(=O)Nc2cccc(C(=O)O)c2)cc1[S+](=O)([O-])N1CCCC1 [NCGC00098466-01]
2,11.1 µM,Cc1cn2nc(C(=O)NCCc3ccccc3)cc2c(=O)[nH]1 [NCGC00453944-01]
3,11.1 µM,Cc1cc(CNC(=O)C2CCCCn3nnnc32)c2[nH]c(-c3ccccc3)c(C)c2c1 (centres unmarked) [NCGC00434459-01]
4,11.1 µM,CCOc1ccccc1C(=O)Nc1cccc(-c2nc3ccccc3s2)c1 [NCGC00119161-01]
5,2.48 µM,CSC(=S)Nc1ccc(-c2nc3ccc(C)cc3s2)cc1 [NCGC00640908-01]
6,11.1 µM,Cc1ccc2nc(-c3ccc(NC(=O)COc4c(C)ccc(C)c4C)cc3)sc2c1 [NCGC00099580-01]
7,14 µM,COc1ccc(-c2nnc(SC(C)C(=O)O)o2)cc1 (centres unmarked) [NCGC00103120-01]
8,> 30 µM,Cc1cccc(-c2cccc(NC(=O)C3CCCN(C(=O)CC(F)(F)F)C3)c2)c1 (centres unmarked) [NCGC00425452-01]
9,8.81 µM,O=C(O)C1CCc2nc(N3CCN(C(=O)C4CCC4)CC3)sc2C1 (centres unmarked) [NCGC00432759-01]
10,6.24 µM,Cc1cccc(OCC(=O)Nc2cccc(-c3nc4ccccc4s3)c2)c1 [NCGC00099366-01]
11,> 30 µM,Oc1cc(-c2nc3ccccc3s2)cc2c1OCCN(Cc1cccn1-c1ccccn1)C2 [NCGC00240089-01]
12,9.89 µM,Cc1ccc(NC(=O)c2oc3ccc4c(c3c2C)C(=O)CC(C)(C)O4)c(C)c1 [NCGC00122260-01]
13,8.81 µM,Cc1ccc(-c2cc3c(=O)n(CCNC(=O)c4nccc5ccccc45)ccn3n2)c(C)c1 [NCGC00456974-01]
14,3.13 µM,CNC(=O)CCn1ncc2cc(OCc3ccccc3-c3cccc(NC(C)=O)c3)ccc21 [NCGC00418019-01]
15,12.4 µM,Cc1ccc(N2C(=O)c3[nH]nc(C)c3C2c2ccc(Cl)cc2)cc1 (centres unmarked) [NCGC00108483-01]
16,9.89 µM,Cc1ccc(C2=NOC3(CCN(C(=O)c4cccc(N(C)C)c4)CC3)N2)cc1 [NCGC00446875-01]
17,18 µM,COCCN1CCNc2cc(Nc3cccc(OC)c3)ncc2C1 [NCGC00411124-01]
18,> 30 µM,COc1ccc(CNC(=O)c2ccc3c(c2)N=C(C)c2c(C)ccc(C)c2S3)cc1 [NCGC00112026-02]
19,18 µM,Clc1ccc(Nc2ncc(-c3cccnc3)c3c2OCC3)cc1 [NCGC00412736-01]
20,3.13 µM,COc1ccc(-c2noc(N3CCc4ccccc43)n2)cc1 [NCGC00422328-01]
21,12.4 µM,CSc1ccc(NC(=O)c2ccc3c(c2)N(C)C2CCCN2C3=O)cc1 (centres unmarked) [NCGC00452166-01]

row,IC50,Structure (SMILES)
1,20.2 µM,O=C(Nc1nc2ccccc2s1)c1ccc2c(c1)OCCN(CCC(F)(F)F)C2 [NCGC00418456-01]
2,> 30 µM,O=C(Nc1ccccc1-c1nc2ccccc2s1)c1ccccc1F [NCGC00636212-01]
3,18 µM,COc1ccc(-c2cnc(Nc3cccc(N[S+](C)(=O)[O-])c3)c3c2CCO3)cn1 [NCGC00412697-01]
4,9.89 µM,Cc1c(N[S+](C)(=O)[O-])cccc1-c1nc2ccccc2s1 [NCGC00118990-01]
5,3.94 µM,Cc1ccc(NC(=O)Nc2ccc(C)n(CC(=O)N3CCC(C)CC3)c2=O)cc1 [NCGC00430800-01]
6,3.21 µM,COc1ccc(-c2ncc3c(n2)OCCN(c2ccccc2)C3=O)cc1F [NCGC00413523-01]
7,11.1 µM,Cc1ccc(/C=C/C(=O)N2CCC(c3nc4ccccc4o3)CC2)cc1 [NCGC00118334-01]
8,14 µM,O=C(COc1ccccc1)Nc1nnc([S+](=O)([O-])Nc2ccccc2)s1 [NCGC00120845-01]
9,11.1 µM,Cc1ccc(-c2nnc(SCc3ccccc3C)o2)cc1 [NCGC00103155-01]
10,18 µM,Cc1ccc2oc([C@H]3CCN(Cc4cccs4)C3)nc2c1 [NCGC00397825-01]
11,11.1 µM,CCCOC(=O)CSc1ncnc2sc3c(c12)CCC(C)C3 (centres unmarked) [NCGC00100112-01]
12,12.4 µM,COc1ccc(-c2nc3ccccc3o2)cc1NC(=O)c1cccnc1 [NCGC00103240-01]
13,> 30 µM,O=C(COc1ccccc1F)Nc1ccc(-c2nc3ccccc3s2)cc1 [NCGC00118994-02]
14,7.85 µM,Cc1ncc(C(=O)NCc2ccc3[nH]c(-c4ccccc4F)c(C)c3c2)c(C)n1 [NCGC00435925-01]
15,14 µM,O=C(c1ccc(CSc2nc3ccncc3n2Cc2ccccc2F)cc1)N1CCCCC1 [NCGC00113496-01]
16,12.4 µM,O=C(c1ccncc1)N1CCC(Oc2ccc(-c3noc(-c4ccccc4)n3)cc2)C1 (centres unmarked) [NCGC00440993-01]
17,17.6 µM,Oc1ccc(-c2nc3ccccn3c2Nc2ccc3c(c2)OCCO3)cc1 [NCGC00106600-01]
18,6.24 µM,COc1ccc(-c2cc(N3CCCC(NC(=O)c4ccsc4)C3)[nH]n2)cc1 (centres unmarked) [NCGC00437662-01]
19,> 30 µM,COc1ccc(-c2nc(C)c(CCNC(=O)c3c(F)cccc3F)s2)cc1 [NCGC00135823-01]

row,Structure (SMILES),IC50
1,CCn1cc(-c2cc3c(cn2)CN(C)CCN3)cn1 [NCGC00411244-01],22.6 µM

# — article PMC12064818, “A general assay platform to study protein pharmacology using ligand-dependent structural dynamics” (Nature Communications, 2025)
